Ki data for ten compounds are collected here from BindingDB's records for doi:10.1074/jbc.M113.532804 (University of Wuerzburg, 2014).

What is called Ki is a dissociation constant, usually derived from enzyme kinetics or from competition with a known ligand. A low value points to higher affinity.

The target of assay [1] is T1, Enoyl-[acyl-carrier-protein] reductase [NADPH] FabI (Staphylococcus aureus (strain NCTC 8325 / PS 47), UniProt Q2FZQ3).
T1 sequence (Q2FZQ3 whole entry): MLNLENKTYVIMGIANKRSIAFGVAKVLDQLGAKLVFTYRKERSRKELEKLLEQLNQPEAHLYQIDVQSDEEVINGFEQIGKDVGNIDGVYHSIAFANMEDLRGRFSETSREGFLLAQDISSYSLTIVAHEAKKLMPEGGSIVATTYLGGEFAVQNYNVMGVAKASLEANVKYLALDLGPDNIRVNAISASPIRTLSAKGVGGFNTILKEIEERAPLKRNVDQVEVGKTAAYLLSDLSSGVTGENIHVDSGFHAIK
The experiment in a line: Inhibition Kinetics Assay. As to conditions: pH 7.5. The protocol: (§1) Kinetics were performed on a Cary 100 spectrophotometer (Varian) at 20 °C.

For assay [2], the target named is T2, Enoyl-[acyl-carrier-protein] reductase [NADH] FabI (Escherichia coli (strain K12), UniProt P0AEK4).
T2 sequence (P0AEK4 whole entry): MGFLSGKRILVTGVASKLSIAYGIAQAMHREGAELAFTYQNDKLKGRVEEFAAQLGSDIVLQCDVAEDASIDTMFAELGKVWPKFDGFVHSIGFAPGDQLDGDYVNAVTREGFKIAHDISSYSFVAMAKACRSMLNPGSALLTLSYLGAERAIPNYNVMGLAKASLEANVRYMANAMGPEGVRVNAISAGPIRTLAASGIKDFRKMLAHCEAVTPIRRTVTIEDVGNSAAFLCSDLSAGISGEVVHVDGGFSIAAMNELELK
The assay is described as follows: Inhibition Kinetics Assay. As to conditions: pH 7.5. The protocol:
as §1

Compound `Cc1c(N)cccc1Cn1ccc(OCCc2cccs2)cc1=O` [CG400549] returned a Ki in assay [1] of 1.3 nM.

Take `CCCCCCc1cc(=O)c(Cc2ccccc2C#N)cn1C` [PT159]: the affinity in assay [1] corresponds to a Ki of 11 nM.

As for `CCCCCCc1cc(=O)c(Oc2ccccc2C)cn1C` [PT166], the figures for the Ki in assay [1] and in assay [2] were 2.7 nM and 7 nM, respectively.

For the compound `Cc1ccn(Cc2ccccc2Cl)c(=O)c1` [PT170], in assay [1], the Ki is 229 nM.

Turning to `CCCCCCc1ccn(Cc2ccccc2C)c(=O)c1` [PT171], the Ki stood at 11.9 nM in assay [1] and 95.7 nM in assay [2].

In turn, `CCCCCCc1ccn(Cc2ccccc2Cl)c(=O)c1` [PT172] had a Ki in assay [1] of 11 nM.

With `CCCCCCc1ccn(Cc2cccc(N)c2C)c(=O)c1` [PT173], the Ki in assay [1] is 2 nM; in assay [2], 203 nM.

Compound `CCCCCCc1ccn(Cc2ccccc2)c(=O)c1` [PT179] showed an inhibition constant (Ki) in assay [1] of 19 nM.

In the case of `CCCCCCc1ccc(Oc2ccccc2)c(=O)[nH]1` [PT191], the Ki in assay [1] was 196 nM.

For `CCCCCc1ccn(Cc2ccccc2C#N)c(=O)c1` [PT420], the Ki in assay [1] came out at 29.6 nM.
